Data taken from patent publication US20160159808A1, “HETEROCYCLIC COMPOUND” (TAKEDA PHARMACEUTICAL COMPANY LIMITED, priority 2013, published 2016).

Target: T1, human PDE2A3 enzyme (Homo sapiens, UniProt O00408)
T1 construct: Human PDE2A3 full-length gene was transduced into Sf9; His-tag; made in house; host or cells: Sf9 insect cells
Experiment: PDE Enzyme Inhibitory Assay (SPA, [3H]cGMP substrate)
Format: biochemical
Details: compound 1 μM; [3H]cGMP 77 nM; 60 min at room temperature; read-out: inhibitory rate (%) (1 μM)
Procedure: PDE Enzyme Inhibitory Assay Human PDE2A3 full-length gene was transduced into Sf9, and human PDE2A3 enzyme was purified by His-tag affinity column and gel filtration. The enzyme was stored at −70° C. until use. PDE activity was measured using a SPA (Scintillation Proximity Assay) (GE Healthcare). To evaluate the inhibitory activity of the compound, 10 μl of serial diluted compounds were reacted with 20 μl of PDE enzyme in assay buffer (50 mM HEPES-NaOH, 8.3 mM MgCl2, 1.7 mM EGTA, 0.1% BSA (pH 7.4)) for 30 min. at room temperature. Final concentration of DMSO in the reaction solution was 1 percent. Compounds were tested in duplicate in 96-well half-area plates (Corning) or 384-well OptiPlate (PerkinElmer). To start the reaction, 10 μl of substrate [^3H] cGMP (final concentration 77 nM, PerkinElmer) was added to a total volume of 40 μl. After reaction for 60 min at room temperature, 20 μl of 20 mg/mL yttrium SPA beads containing zinc sulfate was added to terminate the PDE reaction. After being settled for further 1 hour, the assay plates were counted in a scintillation counter (PerkinElmer) to allow calculation of inhibition rate. Inhibition rate was calculated on the basis of 0% control wells with enzyme and DMSO, and 100% control wells without enzyme.

T1 sequence (O00408 whole entry): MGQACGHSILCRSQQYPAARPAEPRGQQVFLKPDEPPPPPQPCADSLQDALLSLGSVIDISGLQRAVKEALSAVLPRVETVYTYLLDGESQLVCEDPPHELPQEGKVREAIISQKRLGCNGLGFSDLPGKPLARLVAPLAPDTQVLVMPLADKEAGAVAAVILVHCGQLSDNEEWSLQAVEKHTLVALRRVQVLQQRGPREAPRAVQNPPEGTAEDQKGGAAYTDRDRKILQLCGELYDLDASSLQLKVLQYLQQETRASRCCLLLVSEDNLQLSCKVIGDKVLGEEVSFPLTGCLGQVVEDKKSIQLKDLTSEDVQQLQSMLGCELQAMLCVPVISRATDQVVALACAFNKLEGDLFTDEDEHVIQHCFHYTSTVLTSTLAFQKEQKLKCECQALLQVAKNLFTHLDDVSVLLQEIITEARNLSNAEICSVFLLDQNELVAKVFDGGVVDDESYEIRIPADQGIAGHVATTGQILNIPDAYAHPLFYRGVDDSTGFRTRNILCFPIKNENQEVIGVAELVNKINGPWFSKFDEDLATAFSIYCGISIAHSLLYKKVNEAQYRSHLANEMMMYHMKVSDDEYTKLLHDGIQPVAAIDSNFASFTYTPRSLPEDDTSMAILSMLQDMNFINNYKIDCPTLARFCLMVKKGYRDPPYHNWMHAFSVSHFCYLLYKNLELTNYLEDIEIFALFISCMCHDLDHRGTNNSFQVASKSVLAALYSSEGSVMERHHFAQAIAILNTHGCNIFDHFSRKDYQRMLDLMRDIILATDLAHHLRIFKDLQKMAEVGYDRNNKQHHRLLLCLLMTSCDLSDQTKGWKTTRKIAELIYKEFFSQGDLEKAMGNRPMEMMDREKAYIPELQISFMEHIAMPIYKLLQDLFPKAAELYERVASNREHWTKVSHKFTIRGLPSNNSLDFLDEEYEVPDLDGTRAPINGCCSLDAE

inhibition at 1 µM [%]	Structure (SMILES)
100	Cc1cn2ncc(C(=O)N[C@@H](c3ccc(OC(F)(F)F)cc3)C(C)(C)O)c2nc1-c1cnn(C(F)F)c1 [Example 83, 5-(1-(difluoromethyl)-1H-pyrazol-4-yl)-N-((1S)-2-hydroxy-2-methyl-1-(4-(trifluoromethoxy)phenyl)propyl)-6-methylpyrazolo[1,5-a]pyrimidine-3-carboxamide]
100	CCN(C)c1ccn2ncc(C(=O)NC(c3ccc(OC(F)(F)F)c(F)c3)C(C)(C)O)c2n1 (centres unmarked) [Example 29, 5-(ethyl(methyl)amino)-N-(1-(3-fluoro-4-(trifluoromethoxy)phenyl)-2-hydroxy-2-methylpropyl)pyrazolo[1,5-a]pyrimidine-3-carboxamide]
100	COC[C@@H](NC(=O)c1cc(=O)[nH]c2cc(C)cnc12)c1ccc(OC(F)(F)F)cc1 [Example 92, N-((1S)-2-methoxy-1-(4-(trifluoromethoxy)phenyl)ethyl)-7-methyl-2-oxo-1,2-dihydro-1,5-naphthyridine-4-carboxamide]
101	Cc1cn(-c2ccn3ncc(C(=O)N[C@@H](c4ccc(OC(F)(F)F)cc4)C(C)(C)O)c3n2)cn1 [Example 115, N-((1S)-2-hydroxy-2-methyl-1-(4-(trifluoromethoxy)phenyl)propyl)-5-(4-methyl-1H-imidazol-1-yl)pyrazolo[1,5-a]pyrimidine-3-carboxamide]
100	Cn1cc(C(=O)N[C@@H](c2ccc(OC(F)(F)F)cc2)C(C)(C)O)c2nc(-c3ccccn3)cc(=O)n21 [Example 77, N-((1S)-2-hydroxy-2-methyl-1-(4-(trifluoromethoxy)phenyl)propyl)-1-methyl-7-oxo-5-(pyridin-2-yl)-1,7-dihydropyrazolo[1,5-a]pyrimidine-3-carboxamide]
101	CC(C)(O)[C@@H](NC(=O)c1cnn2ccc(-c3cnn(C(F)F)c3)nc12)c1ccc(OC(F)(F)F)cc1 [Example 70, 5-(1-(difluoromethyl)-1H-pyrazol-4-yl)-N-((1S)-2-hydroxy-2-methyl-1-(4-(trifluoromethoxy)phenyl)propyl)pyrazolo[1,5-a]pyrimidine-3-carboxamide]
99	COCC(NC(=O)c1cc(=O)[nH]c2cccnc12)c1ccc(OC(F)(F)F)cc1 (centres unmarked) [Example 1, N-(2-methoxy-1-(4-(trifluoromethoxy)phenyl)ethyl)-2-oxo-1,2-dihydro-1,5-naphthyridine-4-carboxamide]
101	Cc1cn2ncc(C(=O)NC(c3ccc(OC(F)(F)F)c(F)c3)C(C)(C)O)c2nc1N1CCC1 (centres unmarked) [Example 59, 5-(azetidin-1-yl)-N-(1-(3-fluoro-4-(trifluoromethoxy)phenyl)-2-hydroxy-2-methylpropyl)-6-methylpyrazolo[1,5-a]pyrimidine-3-carboxamide]
100	CC(C)(O)[C@@H](NC(=O)c1cnn2ccc(-c3ccccn3)nc12)c1ccc(OC(F)(F)F)cc1 [Example 72, N-((1S)-2-hydroxy-2-methyl-1-(4-(trifluoromethoxy)phenyl)propyl)-5-(pyridin-2-yl)pyrazolo[1,5-a]pyrimidine-3-carboxamide]
99	CC1(C)CN(c2ccn3ncc(C(=O)N[C@@H](c4ccc(OC(F)(F)F)cc4)C(C)(C)O)c3n2)CCO1 [Example 124, 5-(2,2-dimethylmorpholin-4-yl)-N-((1S)-2-hydroxy-2-methyl-1-(4-(trifluoromethoxy)phenyl)propyl)pyrazolo[1,5-a]pyrimidine-3-carboxamide]
98	Cn1cc(C(=O)N[C@@H](c2ccc(OC(F)(F)F)c(F)c2)C(C)(C)O)c2nc(C3CC3)cc(=O)n21 [Example 66, 5-cyclopropyl-N-((1S)-1-(3-fluoro-4-(trifluoromethoxy)phenyl)-2-hydroxy-2-methylpropyl)-1-methyl-7-oxo-1,7-dihydropyrazolo[1,5-a]pyrimidine-3-carboxamide]
